From ChEMBL document CHEMBL2034833, “Synthesis of chalcone-amidobenzothiazole conjugates as antimitotic and apoptotic inducing agents” (Bioorg Med Chem, 2012)
pIC50: −log10 of the molar value.

How the values were obtained:
OVCAR-3 = test: Growth inhibition of human OVCAR3 cells after 48 hrs by sulforhodamine B assay; type: functional; settings: OVCAR-3, 48 h
OVCAR-8 = test: Growth inhibition of human OVCAR8 cells after 48 hrs by sulforhodamine B assay; type: functional; settings: OVCAR-8, 48 h
PC-3 = test: Growth inhibition of human PC3 cells after 48 hrs by sulforhodamine B assay; type: functional; settings: PC-3, 48 h
MCF7 = test: Growth inhibition of human MCF7 cells after 48 hrs by sulforhodamine B assay; type: functional; settings: MCF7, 48 h
EKVX = test: Growth inhibition of human EKVX cells after 48 hrs by sulforhodamine B assay; type: functional
HOP-92 = test: Growth inhibition of human HOP92 cells after 48 hrs by sulforhodamine B assay; type: functional; settings: HOP-92, 48 h
IGROV-1 = test: Growth inhibition of human IGROV1 cells after 48 hrs by sulforhodamine B assay; type: functional; settings: IGROV-1, 48 h
NCI-H522 = test: Growth inhibition of human NCI-H522 cells after 48 hrs by sulforhodamine B assay; type: functional; settings: NCI-H522, 48 h
SF-268 = test: Growth inhibition of human SF268 cells after 48 hrs by sulforhodamine B assay; type: functional; settings: SF-268, 48 h
MDA-MB-468 = test: Growth inhibition of human MDA-MB-468 cells after 48 hrs by sulforhodamine B assay; type: functional; settings: MDA-MB-468, 48 h
A549 [1] = test: Cell cycle arrest in human A549 cells assessed as cell accumulation at subG1 phase at 4 uM after 48 hrs by propidium iodide staining based flow cytometry (reference value: […]); type: functional
RXF 393 = test: Growth inhibition of human RXF393 cells after 48 hrs by sulforhodamine B assay; type: functional; settings: RXF 393, 48 h
NCI-H322M = test: Growth inhibition of human NCI-H322M cells after 48 hrs by sulforhodamine B assay; type: functional
UACC-62 = test: Growth inhibition of human UACC62 cells after 48 hrs by sulforhodamine B assay; type: functional; settings: UACC-62, 48 h
A549 [2] = test: Cell cycle arrest in human A549 cells assessed as cell accumulation at G2/M phase at 2 uM after 48 hrs by propidium iodide staining based flow cytometry (reference value: 23.75%); type: functional
Malme-3M = test: Growth inhibition of human MALME-3M cells after 48 hrs by sulforhodamine B assay; type: functional
SNB-75 = test: Growth inhibition of human SNB75 cells after 48 hrs by sulforhodamine B assay; type: functional; settings: SNB-75, 48 h
A498 = test: Growth inhibition of human A498 cells after 48 hrs by sulforhodamine B assay; type: functional; settings: A498, 48 h
NCI/ADR-RES = test: Growth inhibition of human NCI/ADR-RES cells after 48 hrs by sulforhodamine B assay; type: functional
HCT-15 = test: Growth inhibition of human HCT15 cells after 48 hrs by sulforhodamine B assay; type: functional; settings: HCT-15, 48 h
SN12C = test: Growth inhibition of human SN12C cells after 48 hrs by sulforhodamine B assay; type: functional
HOP-62 = test: Growth inhibition of human HOP62 cells after 48 hrs by sulforhodamine B assay; type: functional; settings: HOP-62, 48 h
NCI-H460 = test: Growth inhibition of human NCI-H460 cells after 48 hrs by sulforhodamine B assay; type: functional; settings: NCI-H460, 48 h
NCI-H23 = test: Growth inhibition of human NCI-H23 cells after 48 hrs by sulforhodamine B assay; type: functional; settings: NCI-H23, 48 h
SK-MEL-2 = test: Growth inhibition of human SK-MEL-2 cells after 48 hrs by sulforhodamine B assay; type: functional; settings: SK-MEL-2, 48 h
A549 [3] = test: Induction of apoptosis in human A549 cells assessed as early apoptotic cells at 2 uM after 48 hrs by annexin-V FITC/propidium iodide staining based FACS analysis; type: functional
A549 [4] = test: Growth inhibition of human A549 cells after 48 hrs by sulforhodamine B assay; type: functional; settings: A549, 48 h
LOX IMVI = test: Growth inhibition of human LOXIMVI cells after 48 hrs by sulforhodamine B assay; type: functional
[5] = Inhibition of tubulin polymerization at 3 uM after 1 hr by fluorescence assay
A-375 = test: Cytotoxicity against human A375 cells after 48 hrs by MTT assay; type: functional, cell-based; settings: A-375, 48 h
RPMI-8226 = test: Growth inhibition of human RPMI8226 cells after 48 hrs by sulforhodamine B assay; type: functional; settings: RPMI-8226, 48 h
A549 [6] = test: cells; settings: Homo sapiens, A549, 48 h
Description: Cytotoxicity against human A549 cells after 48 hrs by MTT assay

A549 [7] = test: Induction of apoptosis in human A549 cells assessed as viable cells at 2 uM after 48 hrs by annexin-V FITC/propidium iodide staining based FACS analysis; type: functional; settings: A549, 48 h, read-out: Activity

COc1ccc(/C=C/C(=O)c2cc(OC)c(OC)c(OC)c2)cc1OCC(=O)Nc1nc2ccc(OC(F)(F)F)cc2s1
GI50 (OVCAR-3): 1520 nM | GI50 (OVCAR-8): 1540 nM | GI50 (PC-3): 3140 nM | GI50 (MCF7): 1320 nM | GI50 (EKVX): 5110 nM | GI50 (HOP-92): 2140 nM | GI50 (IGROV-1): 2540 nM | GI50 (NCI-H522): 670 nM | GI50 (SF-268): 1200 nM | GI50 (MDA-MB-468): 3520 nM | Activity (A549 [1]): 3.21% | GI50 (RXF 393): 1580 nM | GI50 (NCI-H322M): 2770 nM | GI50 (UACC-62): 9520 nM | Activity (A549 [2]): 80.73% | GI50 (Malme-3M): 2690 nM | GI50 (SNB-75): 340 nM | GI50 (A498): 7400 nM | GI50 (NCI/ADR-RES): 490 nM | GI50 (HCT-15): 400 nM | GI50 (SN12C): 1740 nM | GI50 (HOP-62): 2120 nM | GI50 (NCI-H460): 2430 nM | GI50 (NCI-H23): 2150 nM | GI50 (SK-MEL-2): 4970 nM | Activity (A549 [3]): 1.3% | GI50 (A549 [4]): 1990 nM | GI50 (LOX IMVI): 470 nM | inhibition [5]: 63.1% | pIC50 (A-375): 5.62 | GI50 (RPMI-8226): 2020 nM | pIC50 (A549 [6]): 6.05 | viability at 2 µM (A549 [7]): 30.4%
